Measured values: patent US6248718A, “Lesion-directed dry dosage forms of antibacterial agents for the treatment of acute mucosal infections of the oral cavity” (priority 1999, dated 2001)
Values joined by “and” are separate entries in the source; they are usually repeats but may differ in a detail not shown here. Equal entries are not always repeated. “Also recorded” adds a separate entry of the source.

Assays:
[1] = tested on: Staphylococcus aureus ATCC 29213; experiment: MIC for standard strain used in saliva antibiotic assay (Examples VII-IX); format: cell-based; details: Staphylococcus aureus, ATCC29213; nutrient broth, 37° C., 18 hours
Experimental: Each filtered mixture in test tube was inoculated with 0.1 ml of a 1:1,000 dilution of a 12 hour broth culture of Staphylococcus aureus ATCC 29213.
A row of 6 test tubes each containing 2 ml of nutrient broth with decreasing concentrations of penicillin G potassium from 6.2 to 0.16 mcg/ml, using a serial double dilution method described in a., was prepared and similarly inoculated with 0.1 ml broth culture of Staphylococcus aureus ATCC 29213 as the standard.
All test tubes were incubated at 37° C. for 18 hours and observed for bacterial growth against an inoculated broth containing neither antibiotic nor saliva samples.
In this study, the drug powder was suspended in one teaspoonful of water and swallowed by the test subjects two hours after breakfast, followed by drinking an 8 Oz. glass of water. The test subjects refrained from drinking or eating for the next three hours. Six samples of saliva were collected from each subject at 30-minute intervals in succession in the next three hours. An aliquot of 0.2 ml from each saliva sample was transferred to 3.8 ml of nutrient broth. The mixture of the latter was forced to pass a bacterial filter. Two (2) ml of the bacteria-free filtrate was pipetted out into a sterile test tube and inoculated with 0.1 ml of a 1:1,000 dilution of a 12 hours broth culture of Staphylococcus aureus ATCC 29213 and incubated at 37° C. for 18 hours. […]

[2] = tested on: microbes in the exudate covering the canker ulcer; experiment: Congo red negative stain microscopy of canker ulcer exudate (Example VI); format: in vivo, human oral flora; details: penicillin G potassium 50 mg four times a day, about 48 hours
Experimental: Before the initiation of treatment, a small amount of exudate was scraped off the grayish-white covering of the ulcer with a toothpick and mixed with a drop of aqueous solution of Congo red for a negative stain smear. After the dried smear was exposed to concentrated hydrochloric acid vapor, the negative-stained microorganisms were examined microscopically.
(§1) On day 2, about 48 hours after the medication was initiated, the patients collected an early morning sample of saliva immediately after getting up and submitted it to the laboratory for culture. While in the laboratory, a second sample of the residual exudate covering the ulcer was taken from the patient for a post-treatment follow-up microscopy after Congo red negative staining.

bacteria in human saliva = experiment: Inhibition of bacterial growth in human saliva in vitro (Example IV); format: cell-based; details: for bacterial growth from treated saliva: 1 h, aerobic blood agar
Experimental: For this study, five healthy adult volunteers, three men and two women, were asked to refrain from drinking and eating for two hours after breakfast. At the end of two hours, about five (5) ml of saliva was obtained from the oral cavity of each volunteer. Aliquots of 0.1 ml of saliva were pipetted immediately from each saliva sample and spread over the surface of two 5% sheep blood agar plates with a sterile plastic loop. One inoculated blood agar plate was incubated in an aerobic atmosphere containing 5% CO2, and the other anaerobically at 37° C. for 18 hours, as untreated controls.
Aliquots of 0.2 ml of the saliva from each volunteer's sample were pipetted into sterile test tubes, and labeled from No. 2 to No. 13. Five equal doses of dry powder of the USP grade penicillin G potassium salt, 200 mg each, were weighed and put into five sterile test tubes, all labeled No. 1. The dry powder of antibiotic was dissolved in 0.4 ml saliva obtained from each of the five volunteers to constitute an initial concentration of antibiotic concentration of […] in saliva. An aliquot of 0.2 ml of the saliva antibiotic solution was pipetted from tube No. 1 into tube No. 2. After having been thoroughly mixed, 0.2 ml of the content in tube No. 2 was pipetted to tube No. 3, and so forth continuously in succession to make a serial double dilution of penicillin G potassium solutions in saliva through tube No. 13. Finally, the test tubes contained different concentrations of penicillin G potassium in the saliva of five volunteers, as follows.
The mixtures of antibiotic and saliva in the test tubes were incubated at 37° C. One hour later, an aliquot of 0.1 ml was pipetted from the content of each tube, first dropped in the center of a blood agar plate and then spread to the periphery of the plate surface. The plates were incubated aerobically at 37° C. with 5% carbon dioxide in the atmosphere for 18 hours and were examined for bacterial growth.

[3] = tested on: bacteria in saliva in the vicinity of the canker ulcer; experiment: Bacterial inhibition in saliva of canker sore patients in vivo (Example VI)
Experimental: (§2) Six (6) adult, otherwise healthy patients suffering from recurrent minor canker sores were selected for this study from July 10 to Nov. 12, 1998. The drug substance used for this study was crystalline penicillin G potassium salt, U.S.P. grade, purchased from Sigma Chemical Co., St. Louis, Mo. 63178 (Lot No. 57H1195).
(§3) On the first or the second day after the patients noticed the formation of the canker ulcers, 50 mg of penicillin G potassium was administered topically with a spatula or the handle of a teaspoon as dry powder directly over the canker ulcers, four times a day, i.e. after breakfast, after lunch, after supper and before bed time. The patients were advised to retain the antibiotic powder and its concentrated solution in a small pocket of saliva at the site of the ulcer and to avoid its excessive dilution by saliva from other parts of the oral cavity for one hour after each application of the antibiotic powder. No food or drink was allowed during this one-hour period.
Samples of 0.1 ml of saliva at the site in the vicinity of the canker ulcer were pipetted from the mouth immediately before instituting the first penicillin G potassium application and about 60-70 minutes after the first antibiotic application. Each sample was spread on the surface of a 10-cm blood agar Petri dish with a sterile plastic loop. The inoculated plates were incubated aerobically at 37° C. for 18 hours as described above. The total numbers of bacterial colonies on each plate were estimated. The dominating species of the microorganisms were identified according to the approved protocols routinely used in a clinical microbiology laboratory. The results are tabulated as follows
as §1
On day 6, i.e. two days after the last dose of medication, the patients were instructed to collect a sample of saliva in a sterile test tube upon waking up in the morning before brushing their teeth. The saliva was brought to the laboratory. Aliquot of 0.1 ml of each saliva sample was pipetted and inoculated on the surface of a blood agar plate and incubated aerobically as described previously. After 18 hours of incubation, there were more 3,000 colonies growing on each blood agar plate. The overwhelming majority of the colonies were those of Neisseriae and non-β-hemolytic streptococci, similar to those observed in FIG. 1.

[4] = Healing of canker sores in patients (Example VI); format: in vivo, human; details: 50 mg four times a day, four days course, six patients
Experimental: as §2, §3

CC1(C)S[C@@H]2[C@H](NC(=O)Cc3ccccc3)C(=O)N2[C@H]1C(=O)O [penicillin G potassium]
MIC [1]: 0.75 µg/mL | microbes in exudate after topical treatment [2]: Only very rare cocci were found; also recorded: practically eliminated | bacterial growth from treated saliva (bacteria in human saliva; 1 mg/ml): Scattered bacterial colonies began to appear; also recorded: the inhibition is not complete; also recorded: A few surviving or uninhibited bacteria grew into colonies | bacterial growth from treated saliva (bacteria in human saliva; 2 mg/ml or above): No bacterial colonies were visible; also recorded: practically inhibits the growth of all of the salivary bacteria; also recorded: either destroyed or totally inhibited | MIC (bacteria in human saliva; Homo sapiens, read-out: concentration sufficient to kill or inhibit practically all salivary bacteria): 1000 to 2000 µg/mL | duration of inhibitory effect on oral flora ([3]; 50 mg): not long-lasting | alteration of normal oral flora ([3]; 50 mg four times a day, intermittent): not permanently altered; also recorded: did not seem to alter the dominant microbial components of the normal flora | Colonies after Treatment ([3]; 50 mg powder, about 60-70 minutes, 0.1 ml saliva, per patient, Y = yeast): 0 and 2 and Two | inhibition of bacteria in saliva covering the ulcer ([3]; 50 mg powder, about one hour): totally destroyed or inhibited; also recorded: intermittent total inhibition of bacterial growth in the saliva | bacterial colonies in early morning saliva ([3]; day 2, about 48 hours after start of medication, 0.1 ml): more than 3,000 bacterial colonies | bacterial colonies in morning saliva ([3]; day 6, two days after last dose, 0.1 ml): > 3,000 colonies | healing of canker sores [4]: healed completely
